Where “and” joins values, the source holds several entries; their conditions need not be identical. Equal entries are not always repeated.
Assays:
Assay type in all cases: cell-based, mouse
[1] = system: BAF complex recruitment to the modified Oct4 (Pou5f1) locus in CiA MEF cells; experiment: Recruitment assay (ON): rapamycin-induced BAF complex recruitment to the CiA Oct4 locus, ChIP-qPCR; details: 24 hours of rapamycin treatment (3 nM); Frb-V5-tagged BAF subunit fusions; CiA MEFs
Text: CiA mouse embryonic fibroblasts (MEFs) containing a modified Oct4 promoter (with 12×ZFHD1 and 6×GAL4 sites upstream of the promoter) were generated, cultured and maintained as previously described (Hathaway et al., “Dynamics and memory of heterochromatin in living cells,” Cell (2012) 149:1447-1460). Briefly, lentiviral delivery constructs bearing an EF1-alpha promoter and either puromycin or blasticidin resistance were generated to contain the constructs described here (FIG. 1a). To generate recruitable forms of BAF complexes, individual subunits (SS18, BRG, BAF47, BAF57) were N-terminally fused to Frb-V5. […]
Briefly, for rapid time course assays, adherent CiA MEF cells were washed once in PBS, scraped off plates into fix buffer (50 mM HEPES, 1 mM EDTA, 0.5 mM EGTA, and 100 mM NaCl), resuspended, and immediately formaldehyde fixed. […] Chromatin input was reverse crosslinked and evaluated for shearing efficiency and 100-150 μg of chromatin stock was used per immunoprecipitation reaction. […]
(§1) CiA knock-in locus-specific primers were generated with plus (+) and minus (−) direction distances calculated from the middle of the ZFHD1 recruitment domain as well as […] distances calculated from the Oct4 transcription start site (TSS). Briefly, enrichment (bound over input) averages and standard deviations were calculated over n=5 repeat experiments for each primer set. […]

[2] = system: BAF complex tethering to the Oct4 locus in CiA MEF cells; experiment: OFF/washout experiments: FK1012 competition of rapamycin-tethered BAF complexes, ChIP-qPCR
Experimental: Briefly, adherent CiA MEF cells were treated with 3 nM (final) rapamycin (sirolimus; Sellekchem #S1039) (ON experiments) or 3 nM rapamycin followed by 30 nM FK1012 (OFF/washout experiments) for prescribed times (2.5 minutes-24 hours). For acute time points, cells were harvested rapidly by washing media out once with PBS, scraping cells off plates with a cell scraper, resuspending in CiA fix buffer, and formaldehyde fixing for subsequent ChIP analyses.
Briefly, for rapid time course assays, adherent CiA MEF cells were washed once in PBS, scraped off plates into fix buffer (50 mM HEPES, 1 mM EDTA, 0.5 mM EGTA, and 100 mM NaCl), resuspended, and immediately formaldehyde fixed. After cross-linking, cells (7-10×10̂6) were washed and sonicated for 13.5 minutes using a Covaris E220 Sonicator (Covaris, Inc., Woburn, Mass.). Chromatin input was reverse crosslinked and evaluated for shearing efficiency and 100-150 μg of chromatin stock was used per immunoprecipitation reaction. […]
as §1

[3] = system: DNA accessibility at the Oct4 locus in CiA Oct4 MEF cells; experiment: Transposase (Tn5) chromatin accessibility assay after FK1012 addition; details: post-addition of FK1012 (removal of the BAF complex)
Experimental: Following various recruitment conditions, 5×10̂4 CiA Oct4 MEF cells were harvested, washed once in PBS, once in RSB buffer (10 mM Tris-HCl, pH 7.4, 10 mM NaCl, 3 mM MgCl2), and centrifuged at 500×g for 5 minutes at 4 degrees C. Cells were then lysed in lysis buffer (500 ul RSB buffer+5 ul 10% NP-40) for 5 minutes on ice, spun at 500×g for 5 minutes, resuspended in Tagment DNA/Enzyme Buffer Mix (Illumina Nextera Sample Preparation Kit, Cat. # FC-121-1030), and incubated for 30 minutes at 37° C. Following Tn5 transposase enzyme reaction, DNA was purified using Quiagen MinElute PCR Purification Kit (Cat #28004). Transposed DNA fragments were amplified via qPCR to the appropriate number of cycles and library was purified using a Quiagen PCR Cleanup Kit eluted in 20 ul of elution buffer (10 mM Tris Buffer, pH 8.0). CiA locus-specific qPCR was performed using primers in Supplemental Table 2.

Row | Compound | BAF complex recruitment (fold enrichment over baseline by ChIP-qPCR) [1] | Decrease in BAF complex tethering to the Oct4 locus, FK1012 addition versus rapamycin washout (media change) ([2]; 3 nM rapamycin followed by 30 nM FK1012) | Time at which PRC2 (Ezh2) and PRC1 (Ring1B) began to reappear ([2]; post-addition of FK1012, paralleled by reappearance of H3K27Me3 and H2AUb1) [h] | Time at which inaccessible chromatin began to reform [3] [h]
1 | CO[C@H]1C[C@@H]2CC[C@@H](C)[C@@](O)(O2)C(=O)C(=O)N2CCCC[C@H]2C(=O)O[C@H]([C@H](C)C[C@@H]2CC[C@@H](O)[C@H](OC)C2)CC(=O)[C@H](C)/C=C(\C)[C@@H](O)[C@@H](OC)C(=O)[C@H](C)C[C@H](C)/C=C/C=C/C=C/1C [rapamycin] | 20-40 fold and 40-60 fold |  |  | 
2 | FK1012 |  | more rapid, robust decreases | ~2 | 2.5 to 5
